# How the values were obtained:
# [1] = test system: glioma cells; experiment: MTT cell viability, summary for glioma cells; format: cell-based; conditions: Homo sapiens, 72 h, summary statement, read-out: IC50 cell viability in different glioma cells
# Experimental: (§1) MTT assay was used to study cell viability. For that, cells were seeded at a density of 1.5 × 10^3 cells/well in 96-well plates, incubated overnight and then treated with increasing concentrations of DDI199. After 72 h of treatment, MTT absorbance was measured at 570 nm. GraphPad Prism software was used to analyze results and calculate IC50 values.
# [2] = test system: U87-MG cells; experiment: Cell viability with TMZ and DDI199 alone or combined; format: cell-based, human; conditions: 72 h
# Experimental: as §1
# [3] = test system: GNS166 cells; experiment: Cell cycle analysis by flow cytometry; format: cell-based, human; conditions: for Cell subpopulation in Sub G1: non-treated 1.9%; for Cell subpopulation in G2/M phase: non-treated 25%
# Experimental: Cells were harvested using accutase and washed with PBS. 1·10^6 cells were fixed with 70% cold ethanol at −20 °C for at least 24 h, and incubated with 0.5% Triton X-100 and 25 µg/mL RNase A in PBS for 30 min at room temperature. Then, DNA was stained with […] propidium iodide for 15 min and samples were analyzed using a CytoFLEX flow cytometer (Beckman Coulter Co.).
# [4] = test system: GNS166 cells; experiment: Immunofluorescence of pH3, Cleaved Caspase 3, Ki67, PARP1; format: cell-based, human; conditions: for pH3-positive cells: control 3%
# Experimental: Immunofluorescence assays were performed following standard procedures. Cells were seeded at a density of 2 × 10^4 cells/well in 8-well immunofluorescence chambers (LabTek Thermo) and incubated overnight before treating with increasing concentrations of DDI199. After 48 h, cells were fixed with 4% PFA. Primary antibodies against phosphohistone H3 (pH3) (ab14955, abcam), Cleaved Caspase 3 (AF385, R&D Systems), Ki67 (ab15580, abcam) and PARP1 (ab32064, abcam) were used. Secondary antibodies were Alexa Fluor anti-mouse (A21422, Invitrogen) and Alexa Fluor anti-rabbit (A31572, Invitrogen), and chromatin was stained with DAPI (D9541, Sigma-Aldrich). Axio Observer 7 epifluorescence microscope was used to take pictures, which were later quantified in Qupath.
# [5] = test system: U87-MG cells; experiment: Subcutaneous U87-MG tumor growth, single treatment; format: in vivo, athymic nude-Foxn1nu mice; conditions: day 34, 100 µM intratumoral
# Experimental: For tumor growth experiments, 5 × 10^5 U87-MG cells were subcutaneously injected into two bottom flanks of athymic nude-Foxn1^nu mice, and once tumors reached a size of 25-50 mm^3, mice were sorted into groups taking into account gender and tumor size. Afterwards, mice were intratumorally treated with vehicle, SAHA 100 µM or DDI199 100 µM following a schedule of 5 days on and 2 days off. In combined treatment, mice were treated intraperitoneally with 0.5 mg/Kg of TMZ for 5 days and intratumorally following a schedule of 5 days on and 2 days off with vehicle, SAHA 100 µM or DDI199 100 µM. After 4 weeks of treatment, some mice were kept for washout experiment, while the rest were sacrificed and tumors were extracted for immunohistochemistry and to disaggregate for reinjection and oncosphere formation studies. For reinjection assays, 1.5 × 10^5 cells were subcutaneously injected and tumor size was periodically measured. Once tumors reached end-point criteria, they were extracted for immunohistochemical analysis. An external caliper was used for tumor size measurement and the tumor volume was estimated using the formula V = L · W^2 · 0.5 (where L is tumor length and W is the tumor width).
smiles,measurement,setting,value
C#CCN(Cc1cc2cc(OCCCN3CCCCC3)ccc2n1S(=O)(=O)c1ccccc1)C(=O)CCCCCCC(=O)NO [DDI199],IC50,[1],< 5 µM
same,Cytotoxicity in combination with TMZ,[2]; 0.5 µM DDI199 + 250 µM TMZ,over 70%
same,"Cell viability, single agent",[2]; 250 µM TMZ or 0.5 µM DDI199 alone,reduced cell viability
same,Cell subpopulation in Sub G1,"[3]; GNS166, 5 µM",7.2%
same,Cell subpopulation in G2/M phase,"[3]; GNS166, 5 µM",35%
same,Cell subpopulation in Sub G1,"[3]; GNS166, 10 µM",11.9%
same,Cell subpopulation in G2/M phase,"[3]; GNS166, 10 µM",32%
same,pH3-positive cells,"[4]; GNS166, 1 µM",2%
same,Ki67 positive cells,"[4]; GNS166, 5 µM",almost blocking completely
same,pH3-positive cells,"[4]; GNS166, 5 µM",0.6%
same,pH3-positive cells,"[4]; GNS166, 10 µM",0.1%
same,Cleaved Caspase-3-positive cells,"[4]; GNS166, 1, 5 and 10 µM",increase
same,PARP-positive cells,"[4]; GNS166, 1, 5 and 10 µM",dose-dependent induction of apoptosis
same,Reduction in tumor growth versus controls,[5],~50%
same,Tumor weight at end-point,[5],significantly lower than the controls and also of SAHA
same,Mean final tumor volume,"[5]; 5 days on 2 days off, controls 800 mm^3",465 mm^3

# From paper PMC11971462, “Generation and validation of a novel multitarget small molecule in glioblastoma” (Cell Death & Disease, 2025)
